The text below walks through data of patent US8455475B2 (Gruenenthal GmbH, priority 2009, dated 2013).

The target of the assay is T1, rat B1R (bradykinin receptor 1) (Rattus norvegicus, UniProt P97583).
T1 construct: expressed in transfected cells; host or cells: CHO K1 cells
T1 sequence (P97583 1-337): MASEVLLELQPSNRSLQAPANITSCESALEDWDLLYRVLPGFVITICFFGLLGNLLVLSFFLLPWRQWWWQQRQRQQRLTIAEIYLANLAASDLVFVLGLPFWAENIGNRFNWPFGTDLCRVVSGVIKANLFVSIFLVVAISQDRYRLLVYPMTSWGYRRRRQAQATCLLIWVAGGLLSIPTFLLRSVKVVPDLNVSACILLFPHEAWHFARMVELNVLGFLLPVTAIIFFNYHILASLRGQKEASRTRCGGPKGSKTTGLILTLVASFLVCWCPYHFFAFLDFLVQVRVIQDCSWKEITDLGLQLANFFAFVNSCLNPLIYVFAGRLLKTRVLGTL
Description: FLIPR Ca2+ assay (Fluo-4) on CHO K1 cells stably transfected with the B1R gene of the rat (rB1R cells): % inhibition at 10 μM / IC50, agonist Des-Arg9-bradykinin. Type of assay: cell-based. The settings on record: CHO-K1, rat B1R. Summed up:
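Stably transfected CHO K1 cells loaded with Fluo-4 and read on FLIPR (λex 488, λem 540 nm; peak fluorescence). Test substance (10 μM) added first, then after 10–20 min the agonist at EC80; % inhibition versus maximum achievable inhibition. IC50 from several concentrations, n=2–3, N≥2.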
In general, inhibition refers to the percentage by which the read-out fell short of the control. A low value points to a weak effect. `N#Cc1ccccc1S(=O)(=O)N1CCC2(CCN(C(=O)c3ccc4c(c3)C(N(C(=O)c3ccccc3Cl)C3CC3)CC4)C2)CC1` (stereo not drawn) [IND_CC-618, 2-Chloro-N-[6-[8-[(2-cyano-phenyl)sulfonyl]-2,8-diazaspiro[4.5]decane-2-carbonyl]-2,3-dihydro-1H-inden-1-yl]-N-cyclopropyl-benzamide] yielded an inhibition at 10 µM of 61%.

As for `Cn1ccc2cc(S(=O)(=O)N3CCC4(CCN(C(=O)c5ccc6c(c5)C(N(C(=O)c5ccccc5Cl)C5CC5)CC6)C4)CC3)ccc21` (stereo not drawn) [IND_CC-619, 2-Chloro-N-cyclopropyl-N-[6-[8-[(1-methyl-1H-indol-5-yl)sulfonyl]-2,8-diazaspiro[4.5]decane-2-carbonyl]-2,3-dihydro-1H-inden-1-yl]-benzamide], at 10 µM the inhibition was 57%.

Compound `O=C(NC1CCc2ccc(C(=O)N3CCC4(CCN(Cc5ccc[nH]5)CC4)C3)cc21)c1cc(Cl)ccc1F` (stereo not drawn) [IND_CC-620, 5-Chloro-2-fluoro-N-[6-[8-(1H-pyrrol-2-yl-methyl)-2,8-diazaspiro[4.5]decane-2-carbonyl]-2,3-dihydro-1H-inden-1-yl]-benzamide] showed an inhibition at 10 µM of 54%.

Take `O=C(NC1CCc2ccc(C(=O)N3CCC4(CCN(Cc5ccc(F)c(F)c5)CC4)C3)cc21)c1cc(Cl)ccc1F` (stereo not drawn) [IND_CC-621, 5-Chloro-N-[6-[8-[(3,4-difluoro-phenyl)-methyl]-2,8-diazaspiro[4.5]decane-2-carbonyl]-2,3-dihydro-1H-inden-1-yl]-2-fluoro-benzamide]: the inhibition at 10 µM was determined as 67%.

Take `O=C(NC1CCc2ccc(C(=O)N3CCC4(CCN(Cc5ccc(F)cc5F)CC4)C3)cc21)c1cc(Cl)ccc1F` (stereo not drawn) [IND_CC-622, 5-Chloro-N-[6-[8-[(2,4-difluoro-phenyl)-methyl]-2,8-diazaspiro[4.5]decane-2-carbonyl]-2,3-dihydro-1H-inden-1-yl]-2-fluoro-benzamide]: at 10 µM the inhibition was 69%.

For the compound `COc1ccc(CN2CCC3(CC2)CCN(C(=O)c2ccc4c(c2)C(NC(=O)c2cc(Cl)ccc2F)CC4)C3)cc1F` (stereo not drawn) [IND_CC-623, 5-Chloro-2-fluoro-N-[6-[8-[(3-fluoro-4-methoxy-phenyl)-methyl]-2,8-diazaspiro[4.5]decane-2-carbonyl]-2,3-dihydro-1H-inden-1-yl]-benzamide], the inhibition at 10 µM came to 59%.

`O=C(NC1CCc2ccc(C(=O)N3CCC4(CCN(Cc5ccc[nH]5)CC4)CC3)cc21)c1cc(Cl)ccc1F` (stereo not drawn) [IND_CC-624, 5-Chloro-2-fluoro-N-[6-[9-(1H-pyrrol-2-yl-methyl)-3,9-diazaspiro[5.5]undecane-3-carbonyl]-2,3-dihydro-1H-inden-1-yl]-benzamide] yielded an inhibition at 10 µM of 62%.

On to `O=C(NC1CCc2ccc(C(=O)N3CCC4(CCN(Cc5c[nH]cn5)CC4)CC3)cc21)c1cc(Cl)ccc1F` (stereo not drawn) [IND_CC-625, 5-Chloro-2-fluoro-N-[6-[9-(1H-imidazol-4-yl-methyl)-3,9-diazaspiro[5.5]undecane-3-carbonyl]-2,3-dihydro-1H-inden-1-yl]-benzamide], for which at 10 µM the inhibition was 50%.

In turn, `O=C(NC1CCc2ccc(C(=O)N3CCC4(CCN(Cc5ccccn5)CC4)CC3)cc21)c1cc(Cl)ccc1F` (stereo not drawn) [IND_CC-626, 5-Chloro-2-fluoro-N-[6-[9-(pyridin-2-yl-methyl)-3,9-diazaspiro[5.5]undecane-3-carbonyl]-2,3-dihydro-1H-inden-1-yl]-benzamide] showed an inhibition at 10 µM of 55%.

Take `O=C(NC1CCc2ccc(C(=O)N3CCC4(CCN(Cc5ccncc5)CC4)CC3)cc21)c1cc(Cl)ccc1F` (stereo not drawn) [IND_CC-627, 5-Chloro-2-fluoro-N-[6-[9-(pyridin-4-yl-methyl)-3,9-diazaspiro[5.5]undecane-3-carbonyl]-2,3-dihydro-1H-inden-1-yl]-benzamide]: the inhibition at 10 µM is 54%.

`O=C(NC1CCc2ccc(C(=O)N3CCC4(CCN(Cc5ccc(F)c(F)c5)CC4)CC3)cc21)c1cc(Cl)ccc1F` (stereo not drawn) [IND_CC-628, 5-Chloro-N-[6-[9-[(3,4-difluoro-phenyl)-methyl]-3,9-diazaspiro[5.5]undecane-3-carbonyl]-2,3-dihydro-1H-inden-1-yl]-2-fluoro-benzamide] gave an inhibition at 10 µM of 63%.

The compound `O=C(NC1CCc2ccc(C(=O)N3CCC4(CCN(Cc5ccc(F)cc5F)CC4)CC3)cc21)c1cc(Cl)ccc1F` (stereo not drawn) [IND_CC-629, 5-Chloro-N-[6-[9-[(2,4-difluoro-phenyl)-methyl]-3,9-diazaspiro[5.5]undecane-3-carbonyl]-2,3-dihydro-1H-inden-1-yl]-2-fluoro-benzamide] displayed an inhibition at 10 µM of 71%.

Consider `COc1ccc(CN2CCC3(CC2)CCN(C(=O)c2ccc4c(c2)C(NC(=O)c2cc(Cl)ccc2F)CC4)CC3)cc1F` (stereo not drawn) [IND_CC-630, 5-Chloro-2-fluoro-N-[6-[9-[(3-fluoro-4-methoxy-phenyl)-methyl]-3,9-diazaspiro[5.5]undecane-3-carbonyl]-2,3-dihydro-1H-inden-1-yl]-benzamide], for which the inhibition at 10 µM is 53%.

`O=C(NC1CCc2ccc(C(=O)N3CCC4(CCN(Cc5c[nH]cn5)CC4)C3)cc21)c1cc(C(F)(F)F)ccc1Cl` (stereo not drawn) [IND_CC-631, 2-Chloro-N-[6-[8-(1H-imidazol-4-yl-methyl)-2,8-diazaspiro[4.5]decane-2-carbonyl]-2,3-dihydro-1H-inden-1-yl]-5-(trifluoromethyl)-benzamide] yielded an inhibition at 10 µM of 57%.

`O=C(NC1CCc2ccc(C(=O)N3CCC4(CCN(Cc5c(F)cccc5F)CC4)C3)cc21)c1cc(C(F)(F)F)ccc1Cl` (stereo not drawn) [IND_CC-632, 2-Chloro-N-[6-[8-[(2,6-difluoro-phenyl)-methyl]-2,8-diazaspiro[4.5]decane-2-carbonyl]-2,3-dihydro-1H-inden-1-yl]-5-(trifluoromethyl)-benzamide] came in with an inhibition at 10 µM of 64%.

The compound `O=C(NC1CCc2ccc(C(=O)N3CCC4(CCN(Cc5ccc(F)c(F)c5)CC4)C3)cc21)c1cc(C(F)(F)F)ccc1Cl` (stereo not drawn) [IND_CC-633, 2-Chloro-N-[6-[8-[(3,4-difluoro-phenyl)-methyl]-2,8-diazaspiro[4.5]decane-2-carbonyl]-2,3-dihydro-1H-inden-1-yl]-5-(trifluoromethyl)-benzamide] gave an inhibition at 10 µM of 86%.

The compound `O=C(NC1CCc2ccc(C(=O)N3CCC4(CCN(Cc5cc(F)ccc5F)CC4)C3)cc21)c1cc(C(F)(F)F)ccc1Cl` (stereo not drawn) [IND_CC-634, 2-Chloro-N-[6-[8-[(2,5-difluoro-phenyl)-methyl]-2,8-diazaspiro[4.5]decane-2-carbonyl]-2,3-dihydro-1H-inden-1-yl]-5-(trifluoromethyl)-benzamide] had an inhibition at 10 µM of 75%.

Consider `O=C(NC1CCc2ccc(C(=O)N3CCC4(CCN(Cc5ccc(F)cc5F)CC4)C3)cc21)c1cc(C(F)(F)F)ccc1Cl` (stereo not drawn) [IND_CC-635, 2-Chloro-N-[6-[8-[(2,4-difluoro-phenyl)-methyl]-2,8-diazaspiro[4.5]decane-2-carbonyl]-2,3-dihydro-1H-inden-1-yl]-5-(trifluoromethyl)-benzamide], for which the inhibition at 10 µM came to 72%.

In the case of `COc1ccc(CN2CCC3(CC2)CCN(C(=O)c2ccc4c(c2)C(NC(=O)c2cc(C(F)(F)F)ccc2Cl)CC4)C3)cc1F` (stereo not drawn) [IND_CC-636, 2-Chloro-N-[6-[8-[(3-fluoro-4-methoxy-phenyl)-methyl]-2,8-diazaspiro[4.5]-decane-2-carbonyl]-2,3-dihydro-1H-inden-1-yl]-5-(trifluoromethyl)-benzamide], the inhibition at 10 µM amounted to 79%.

The compound `COc1cccc(F)c1CN1CCC2(CC1)CCN(C(=O)c1ccc3c(c1)C(NC(=O)c1cc(C(F)(F)F)ccc1Cl)CC3)C2` (stereo not drawn) [IND_CC-637, 2-Chloro-N-[6-[8-[(2-fluoro-6-methoxy-phenyl)-methyl]-2,8-diazaspiro[4.5]-decane-2-carbonyl]-2,3-dihydro-1H-inden-1-yl]-5-(trifluoromethyl)-benzamide] displayed an inhibition at 10 µM of 69%.

Regarding `O=C(NC1CCc2ccc(C(=O)N3CCC4(CCN(Cc5ccc[nH]5)CC4)CC3)cc21)c1cc(C(F)(F)F)ccc1Cl` (stereo not drawn) [IND_CC-638, 2-Chloro-N-[6-[9-(1H-pyrrol-2-yl-methyl)-3,9-diazaspiro[5.5]undecane-3-carbonyl]-2,3-dihydro-1H-inden-1-yl]-5-(trifluoromethyl)-benzamide], testing at 10 µM gave an inhibition of 80%.

Regarding `O=C(NC1CCc2ccc(C(=O)N3CCC4(CCN(Cc5c[nH]cn5)CC4)CC3)cc21)c1cc(C(F)(F)F)ccc1Cl` (stereo not drawn) [IND_CC-639, 2-Chloro-N-[6-[9-(1H-imidazol-4-yl-methyl)-3,9-diazaspiro[5.5]undecane-3-carbonyl]-2,3-dihydro-1H-inden-1-yl]-5-(trifluoromethyl)-benzamide], testing at 10 µM gave an inhibition of 78%.

As for `O=C(NC1CCc2ccc(C(=O)N3CCC4(CCN(Cc5ccccn5)CC4)CC3)cc21)c1cc(C(F)(F)F)ccc1Cl` (stereo not drawn) [IND_CC-640, 2-Chloro-N-[6-[9-(pyridin-2-yl-methyl)-3,9-diazaspiro[5.5]undecane-3-carbonyl]-2,3-dihydro-1H-inden-1-yl]-5-(trifluoromethyl)-benzamide], the inhibition at 10 µM is 73%.

`O=C(NC1CCc2ccc(C(=O)N3CCC4(CCN(Cc5ccncc5)CC4)CC3)cc21)c1cc(C(F)(F)F)ccc1Cl` (stereo not drawn) [IND_CC-641, 2-Chloro-N-[6-[9-(pyridin-4-yl-methyl)-3,9-diazaspiro[5.5]undecane-3-carbonyl]-2,3-dihydro-1H-inden-1-yl]-5-(trifluoromethyl)-benzamide] showed an inhibition at 10 µM of 74%.
